In US20250214990A1, “DIACYLGLYCEROL KINASE (DGK) ALPHA INHIBITORS AND USES THEREOF” (Insilico Medicine IP Limited, priority 2022, published 2025):
pEC50, pIC50: −log10 of the molar value.

How the values were obtained:
DGKA = biological target: T1, DGKA (Homo sapiens, UniProt P23743); test: DGKA Inhibition ADP-Glo Assay; type: biochemical; conditions: 40 μM ATP
T1 construct: purchased SignalChem D21-10BG
Method in brief: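 Enzyme was preincubated with compound (10-point, 4-fold series) for 15 min at 25 °C in pH 7.5 HEPES buffer with NaCl, 10 mM MgCl2, 1 mM CaCl2, Triton X-100 and DTT. The reaction was started with substrate working solution (40 μM ATP, 200 µM DLG) and run 60 min at 25 °C. ADP was measured by ADP-Glo luminescence, with IC50 by regression.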

Human Pan T cells = test: IL-2 Release Detection Assay; type: cell-based; conditions: T-cell
Procedure: Isolate Human Pan T cells from PBMC according to T cell isolation kit (Stemcell, 17951). The suspend T cell in RPMI 1640 medium containing 10% FBS, 1% PS and 55 µM β-Mer at a density of 3*10^6 cells/well/3 ml are seeded into 6 well plate, recovered overnight at 37° C.&[…]. Harvest overnight recovered T cells are suspended in fresh RPMI1640 medium containing 10% FBS, 1% PS and 55 μM f-Mer, seeded 1*10^5/well/200 μl cells into the anti-CD3 pre-coated 96 well plate. Add dilutions of compounds into the cells and incubate at 37° C.&5% CO2 for 24 hours. IL-2 in cell supernatant was detected by ELISA Kit (R&D, DY202). Fit the compound EC50 in non-linear regression equation: Y=Bottom+(Top−Bottom)/(1+10^((Log EC50−X)*HillSlope)), X=compound concentration, Y=Activation %. Top and Bottom: Plateaus in same units as Y. Log EC50: same log units as X. Activation fold: Top activation/DMSO control. Activation % at 100 nM: Activation of non-linear regression equation curve at the concentration of 100 nM/DMSO control*100%.

[1] = Mouse PK profile after oral administration; type: in vivo, Male CD-1 mice
Procedure: Species and strain: Male CD-1 mice of SPF. Source: Sino-British SIPPR/BK Lab Animal Ltd, Shanghai. 3 mice were orally gavage administrated with given compounds (Formulation: 5% DMSO+10% Solutol+85% Saline). The blood samples were taken via cephalic vein at timepoints 0.25 h, 0.5 h, 1 h, 2 h, 4 h, 6 h, 8 h and 24 h after oral gavage administration, 30 μL/time point. Blood samples were placed in tubes containing K2-EDTA and stored on ice until centrifuged. The blood samples were centrifuged at 6800 g for 6 minutes at 2-8° C. within 1 h after collected and stored frozen at approximately −80° C. An aliquot of 10 μL plasma samples were protein precipitated with 200 μL MeOH in which contains 10 ng/mL Verapamil (IS). The mixture was vortexed for 1 min and centrifuged at 18000 g for 7 min. Transfer 180 μL supernatant to 96 well plates. An aliquot of 6 μL supernatant was injected for LC-MS/MS analysis by LC-MS/MS-04 (API4000) instrument. The analytical results were confirmed using quality control samples for intra-assay variation. The accuracy of >66.7% of the quality control samples should be between 80-120% of the known value(s). Standard set of parameters including Area Under the Curve (AUC(0-t) and AUC(0-∞)), elimination half-live (T½), maximum plasma concentration (Cmax), will be calculated using noncompartmental analysis modules in FDA certified pharmacokinetic program Phoenix WinNonlin 7.0 (Pharsight, USA).

[2] = Rat PK profile after oral administration; type: in vivo, Male SD rats
Procedure: Species and strain: Male SD rats of SPF. Source: Sino-British SIPPR/BK Lab Animal Ltd, Shanghai. 3 rats were orally gavage administrated with given compounds (Formulation: 5% DMSO+10% Solutol+85% Saline). The blood samples were taken via submandibular vein or other suitable vein at timepoints 0.25 h, 0.5 h, 1 h, 2 h, 4 h, 6 h, 8 h and 24 h after oral gavage administration, 0.15 mL/time point. Blood samples were placed in tubes containing K2-EDTA and stored on ice until centrifuged. The blood samples were centrifuged at 6800 g for 6 minutes at 2-8° C. within 1 h after collected and stored frozen at approximately −80° C. An aliquot of 30 μL plasma samples were protein precipitated with 300 μL MeOH in which contains 100 ng/mL Verapamil (IS). The mixture was vortexed for 1 min and centrifuged at 18000 g for 7 min. Transfer 300 μL supernatant to 96 well plates. An aliquot of 8 μL supernatant was injected for LC-MS/MS analysis by LC-MS/MS-12 (TQ5500) instrument. The analytical results were confirmed using quality control samples for intra-assay variation. The accuracy of >66.7% of the quality control samples should be between 80-120% of the known value(s). Standard set of parameters including Area Under the Curve (AUC(0-t) and AUC(0-∞)), elimination half-live (T1/2), maximum plasma concentration (Cmax), will be calculated using noncompartmental analysis modules in FDA certified pharmacokinetic program Phoenix WinNonlin 7.0 (Pharsight, USA).

[3] = male, CD-1, plasma, mouse, oral, 5 mg/kg
[4] = male, SD, plasma, rat, oral, 5 mg/kg

T1 sequence (P23743 whole entry): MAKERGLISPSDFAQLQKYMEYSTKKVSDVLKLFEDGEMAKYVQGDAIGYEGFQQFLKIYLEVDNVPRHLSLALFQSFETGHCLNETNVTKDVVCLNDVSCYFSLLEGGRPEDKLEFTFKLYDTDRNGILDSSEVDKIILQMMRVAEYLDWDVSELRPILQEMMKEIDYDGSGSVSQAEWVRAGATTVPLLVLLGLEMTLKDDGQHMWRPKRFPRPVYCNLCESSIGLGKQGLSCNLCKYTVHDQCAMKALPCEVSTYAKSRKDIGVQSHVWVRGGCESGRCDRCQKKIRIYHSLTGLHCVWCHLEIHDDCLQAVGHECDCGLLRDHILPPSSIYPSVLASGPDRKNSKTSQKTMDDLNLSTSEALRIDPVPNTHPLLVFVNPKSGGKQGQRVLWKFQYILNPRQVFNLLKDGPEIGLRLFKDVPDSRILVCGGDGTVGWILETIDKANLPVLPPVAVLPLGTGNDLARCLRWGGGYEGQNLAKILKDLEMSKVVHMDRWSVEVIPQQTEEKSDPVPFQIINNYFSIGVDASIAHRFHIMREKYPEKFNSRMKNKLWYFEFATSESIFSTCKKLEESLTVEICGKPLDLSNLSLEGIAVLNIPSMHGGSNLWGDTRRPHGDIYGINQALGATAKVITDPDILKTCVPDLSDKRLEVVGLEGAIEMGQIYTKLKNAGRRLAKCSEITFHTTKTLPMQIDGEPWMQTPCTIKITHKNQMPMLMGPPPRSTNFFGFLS

pIC50 (DGKA): > 9.00 | pEC50 (Human Pan T cells; IL-2 in supernatant by ELISA, anti-CD3 pre-coated plate, 24 hours): 6.88 | AUC(0-inf) [1, 3]: 28400 ng·h/mL | AUC(0-t) [1, 3]: 26200 ng·h/mL | Cmax [1, 3]: 2400 ng/mL | half-life [1, 3]: 6.13 h | T1/2, Cmax and AUC compared with compound ([1]; mouse PK evaluation, comparison in words): longer T1/2, much higher Cmax and AUC | AUC(0-t) [2, 4]: 7520 ng·h/mL | Cmax [2, 4]: 455 ng/mL | T1/2, Cmax and AUC compared with compound ([2]; rat PK evaluation, comparison in words): longer T1/2, much higher Cmax and AUC
Structure (SMILES): Cn1c(=O)nc(N2CCOCc3c(C#CC4(C(F)(F)F)CC4)cccc32)c2cc(Cl)c(OCCO)cc21 [Example 13, 6-chloro-7-(2-hydroxyethoxy)-1-methyl-4-(6-((1-(trifluoromethyl)cyclopropyl)ethynyl)-2,3-dihydrobenzo[e][1,4]oxazepin-1(5H)-yl)quinazolin-2(1H)-one]
maximal fold induction (Human Pan T cells; Top activation/DMSO control): 22.5
